# Values quoted from earlier work, collected in US20090030057A1, “Pharmaceutical composition of telmisartan” (priority 2005, published 2009).
# Where two headings read alike, the source gives them in different places.
structure (smiles),measurement,setting,value
"CCCc1nc2c(C)cc(-c3nc4ccccc4n3C)cc2n1Cc1ccc(-c2ccccc2C(=O)O)cc1 [Telmisartan, 4′-[2-n-propyl-4-methyl-6-(1-methylbenzimid-azol-2-yl)benzimidazol-1-ylmethyl]biphenyl-2-carboxylic acid]",solubility,in a strong acid (with the exception of hydrochloric acid),sparingly soluble
same,solubility,in a strong base,soluble
same,solubility,in hydrochloric acid,insoluble
same,solubility,in water or an aqueous solution in the pH range of 3 to 9,practically insoluble
